In patent US11690810B2, “Combination treatment of bacterial infection” (The Chinese University of Hong Kong, priority 2018, dated 2023):
Values after ≈ are worked out from the molar mass of the structure shown. Values joined by “and” are separate entries in the source; they are usually repeats but may differ in a detail not shown here. Equal values may be shown once. Read-outs that look alike come from different tables or passages of the source.

Assays:
CA MRSA W106 = assay: MIC and checkerboard (FIC) assay; conditions: for FIC / MIC combine: ECG with Kur
HA MRSA W231 = conditions: ECG+Kur+Van
CA MRSA W101 = assay: MIC and checkerboard (FIC) assay; conditions: for FIC / MIC combine: ECG with Kur
HA MRSA W239 = assay: MIC and checkerboard (FIC) assay; conditions: for FIC / MIC combine / MIC alone: W239
[1] = test system: S. aureus SA-1199B (NorA efflux pump overexpressed); assay: MIC and checkerboard (FIC) assay; conditions: for FIC / MIC combine: 1199B; for MIC: read-out: MIC alone, 1199B
[2] = test system: cytokines production of human PBMC stimulated with PGN or SEB; assay type: cell-based
[3] = test system: S. aureus SA-RN4220-pUL5054 (RN4220); assay: MIC and checkerboard (FIC) assay
[4] = test system: NorA overexpressed S. aureus; conditions: ECG at 20 μg/ml; norfloxacin-resistant S. aureus overexpressing NorA (16); cited from earlier work
[5] = test system: Human Mammary Epithelial Cell (HMEC); assay: XTT cytotoxicity testing; assay type: cell-based; conditions: 2-64 μg/ml, vs drug free control
Method: (§1) The plates were maintained in a 37° C. incubator.

[6] = test system: bacterial aggregation of MRSA JE-2; assay: Aggregation assay of MRSA JE-2; assay type: cell-based, Staphylococcus aureus; conditions: JE-2; varying concentrations
HA MRSA W233 = assay: MIC and checkerboard (FIC) assay
[7] = test system: S. aureus ATCC25923 (methicillin sensitive); conditions: ATCC 25293; ECG with Kur
HA MRSA W234 = assay: MIC and checkerboard (FIC) assay; conditions: for FIC / MIC combine: ECG with Kur
HA MRSA W235 = assay: MIC and checkerboard (FIC) assay; conditions: for FIC / MIC combine: ECG with Kur
Solubility = conditions: saline or isotonic
[8] = test system: panel of laboratory MRSA strains; assay: MIC and combination tests, panel of laboratory strains
[9] = test system: Human Umbilical Vein Endothelial Cells (HUVEC); assay: XTT cytotoxicity testing; conditions: 2-64 μg/ml, vs drug free control
[10] = test system: human peripheral blood mononuclear cells (PBMC); assay: XTT cytotoxicity testing; assay type: cell-based; conditions: 2-64 μg/ml, vs drug free control
Method: as §1
The cytotoxicity of kuraridin and its analogues were determined by the sodium 3′-[1-(phenylaminocarbonyl)-3,4-tetrazolium]-bis (4-methoxy-6-nitro) benzene sulfonic acid hydrate (XTT) assay.
Serial dilutions of the compounds ranging 2-64 μg/ml were incubated with PBMCs at 37° C. for 72 hrs.

[11] = test system: adherence of MRSA strain JE-2 to HaCat keratinocytes; assay: Bacterial adherence to HaCaT keratinocytes; assay type: cell-based, Staphylococcus aureus
HA MRSA W238 = assay: MIC and checkerboard (FIC) assay
[12] = test system: cytokines production of human macrophages stimulated with PGN or SEB; assay type: cell-based
[13] = test system: adherence of MRSA strain JE-2 to fibrinogen; assay: Fibrinogen-binding adherence assay (crystal violet); assay type: cell-based, Staphylococcus aureus; conditions: varying concentrations
[14] = test system: clinical fusidic acid resistant MRSA strain 96591; assay: MIC and checkerboard (FIC) assay; assay type: cell-based, Staphylococcus aureus; conditions: for FIC / MIC combine: 96591
clinical MRSA ST239 = assay: Mouse pneumonia model, ST239 (neutropenic mice); assay type: in vivo, Balb/c mice; conditions: ST239; 48 h; 1 also died in control
[15] = Staphylococcus aureus, MRSA, read-out: MIC alone
[16] = Staphylococcus aureus, read-out: MIC 99.9

## O=C(O[C@@H]1Cc2c(O)cc(O)cc2O[C@@H]1c1ccc(O)c(O)c1)c1cc(O)c(O)c(O)c1 [ECG, epicatechin gallate]
CA MRSA W106; [15]
  MIC: 512 µg/mL
CA MRSA W106; W106
  FIC: 0.002
  MIC combine: 1 µg/mL
HA MRSA W231
  FIC: 0.0004
  MIC combine: 0.25 µg/mL
CA MRSA W101; [15]
  MIC: 512 µg/mL
CA MRSA W101; W101
  FIC: 0.002
  MIC combine: 1 µg/mL
HA MRSA W239; [15]
  MIC: 512 µg/mL
HA MRSA W239; ECG with Kur
  FIC: 0.002
  MIC combine: 1 µg/mL
HA MRSA W239; ECG+Kur+Van
  FIC: 0.0009
  MIC combine: 0.5 µg/mL
HA MRSA W239; Table 5
  MIC alone: 512 µg/mL
[1]; Baicalein with ECG
  FIC: 0.25
  MIC combine: 8 µg/mL
[1]; Kuraridin with ECG
  FIC: 0.06
  MIC combine: 32 µg/mL
[1]; Staphylococcus aureus
  MIC90: 8 µg/mL
[1]; [16]
  MIC99: > 512 µg/mL
[1]; Staphylococcus aureus, Baicalein and ECG section
  MIC: 32 µg/mL
[1]; Staphylococcus aureus, Kuraridin and ECG section
  MIC: 512 µg/mL
[2]
  IL-10 and IL-12 production: mildly suppressed
  TNF-α production: no significant effects
[3]; RN4220, Kuraridin with ECG
  FIC: 0.01
  MIC combine: 8 µg/mL
[3]; Staphylococcus aureus
  MIC90: 8 µg/mL
[3]; [16]
  MIC99: > 512 µg/mL
[3]; Staphylococcus aureus, read-out: MIC alone
  MIC: 512 µg/mL
[4]
  potentiation of the activity of norfloxacin: four-fold potentiation
[5]
  Cellular toxicity (XTT assay): not toxic
[6]
  bacterial aggregation: No significant reduction
HA MRSA W233; [15]
  MIC: 512 µg/mL
HA MRSA W233; W233 (gentamicin resistant)
  MIC alone: 512 µg/mL
HA MRSA W233; W233, ECG with Kur
  FIC: 0.004
  MIC combine: 2 µg/mL
HA MRSA W233; W233, ECG+Kur+Gen
  FIC: 0.0005
  MIC combine: 0.25 µg/mL
HA MRSA W233; W233, ECG+Kur+Van
  FIC: 0.03
  MIC combine: 8 µg/mL
HA MRSA W233; W233, ECG+Kur, no Gen
  FIC: 0.03
  MIC combine: 16 µg/mL
HA MRSA W233; W233, Table 5
  MIC alone: 512 µg/mL
[7]
  FIC: 0.008
  MIC combine: 4 µg/mL
HA MRSA W234; [15]
  MIC: 512 µg/mL
HA MRSA W234; W234
  FIC: 0.002
  MIC combine: 1 µg/mL
HA MRSA W235; [15]
  MIC: 512 µg/mL
HA MRSA W235; W235
  FIC: 0.002
  MIC combine: 1 µg/mL
Solubility
  solubility: 20 mg/mL (≈ 45.2 mM)
[8]; Staphylococcus aureus, MRSA
  MIC90: 4 to 16 µg/mL
[8]; panel of laboratory strains
  concentration for 99.9% inhibition: > 512 µg/mL
[9]
  Cellular toxicity (XTT assay): not toxic
[10]
  Cellular toxicity (XTT assay): not toxic
[11]; 64 μg/ml of ECG
  decrease in the adherence of the WT strain to HaCaT cells: 1.4 fold
[11]; ECG 4 μg/ml
  percentage of adherence of the bacteria to HaCaT cells: 73.0±4.1%
[11]; ECG 8 μg/ml
  percentage of adherence of the bacteria to HaCaT cells: 75.4±11.0%
[11]; ECG 16 μg/ml
  percentage of adherence of the bacteria to HaCaT cells: 76.4±7.0%
[11]; ECG 32 μg/ml
  percentage of adherence of the bacteria to HaCaT cells: 58.8±8.5%
[11]; ECG 64 μg/ml
  percentage of adherence of the bacteria to HaCaT cells: 52±6.5%
HA MRSA W238; [15]
  MIC: 512 µg/mL
HA MRSA W238; W238 (gentamicin resistant)
  MIC alone: 512 µg/mL
HA MRSA W238; W238, ECG with Kur
  FIC: 0.002
  MIC combine: 1 µg/mL
HA MRSA W238; W238, ECG+Kur+Gen
  FIC: 0.0004
  MIC combine: 0.25 µg/mL
HA MRSA W238; W238, ECG+Kur+Van
  FIC: 0.0004
  MIC combine: 0.25 µg/mL
HA MRSA W238; W238, ECG+Kur, no Gen
  FIC: 0.0004
  MIC combine: 0.5 µg/mL
HA MRSA W238; W238, Table 5
  MIC alone: 512 µg/mL
[12]
  IL-12 production: could suppress only IL-12
[13]
  fibrinogen-binding adherence: dose-dependent reduction of adherence
[14]; ECG+Kur+Fus
  FIC: 0.002
  MIC combine: 0.25 µg/mL
[14]; ECG+Kur, no Fus
  FIC: 0.003
  MIC combine: 16 µg/mL
[14]; [15]
  MIC: 512 µg/mL
Clinical MRSA ST239
  mice died: 1 mouse

## C=C(C)[C@H](CC=C(C)C)Cc1c(O)cc(OC)c(C(=O)/C=C/c2ccc(O)cc2O)c1O [Kuraridin]
CA MRSA W106; W106
  MIC alone: 8 µg/mL
  FIC: 0.25
  MIC combine: 2 µg/mL
CA MRSA W101; W101
  MIC alone: 8 µg/mL
  FIC: 0.5
  MIC combine: 4 µg/mL
HA MRSA W239
  MIC alone: 8 µg/mL
HA MRSA W239; ECG with Kur
  FIC: 0.5
  MIC combine: 4 µg/mL
HA MRSA W239; ECG+Kur+Van
  FIC: 0.25
  MIC combine: 2 µg/mL
HA MRSA W239; Table 5
  MIC alone: 8 µg/mL
HA MRSA W233; W233
  MIC alone: 4 µg/mL
HA MRSA W233; W233 (gentamicin resistant)
  MIC alone: 8 µg/mL
HA MRSA W233; W233, ECG with Kur
  FIC: 0.5
  MIC combine: 2 µg/mL
HA MRSA W233; W233, ECG+Kur+Gen
  FIC: 0.5
  MIC combine: 4 µg/mL
HA MRSA W233; W233, ECG+Kur+Van
  FIC: 0.25
  MIC combine: 2 µg/mL
HA MRSA W233; W233, ECG+Kur, no Gen
  FIC: 1
  MIC combine: 8 µg/mL
HA MRSA W233; W233, Table 5
  MIC alone: 8 µg/mL
HA MRSA W234; W234
  MIC alone: 8 µg/mL
  FIC: 0.5
  MIC combine: 4 µg/mL
HA MRSA W235; W235
  MIC alone: 8 µg/mL
  FIC: 0.5
  MIC combine: 4 µg/mL
HA MRSA W238; W238
  MIC alone: 8 µg/mL
HA MRSA W238; W238 (gentamicin resistant)
  MIC alone: 8 µg/mL
HA MRSA W238; W238, ECG with Kur
  FIC: 0.5
  MIC combine: 4 µg/mL
HA MRSA W238; W238, ECG+Kur+Gen
  FIC: 0.25
  MIC combine: 2 µg/mL
HA MRSA W238; W238, ECG+Kur+Van
  FIC: 0.25
  MIC combine: 2 µg/mL
HA MRSA W238; W238, ECG+Kur, no Gen
  FIC: 0.5
  MIC combine: 4 µg/mL
HA MRSA W238; W238, Table 5
  MIC alone: 8 µg/mL
[14]; 96591 (fusidic acid resistant), listed as Kur
  MIC alone: 4 µg/mL and 8 µg/mL
[14]; ECG+Kur+Fus
  FIC: 0.5
  MIC combine: 2 µg/mL
[14]; ECG+Kur, no Fus
  FIC: 0.5
  MIC combine: 4 µg/mL
